Assay results from ChEMBL document CHEMBL3091325, “New aminopyrimidine derivatives as inhibitors of the TAM family” (Eur J Med Chem, 2013).

Legend:
[1] = biological target: Fibroblast growth factor receptor 3 (Homo sapiens) (UniProt P22607); assay: Inhibition of FGFR3 (unknown origin) at 75 uM relative to control
[2] = biological target: Fibroblast growth factor receptor 3 (Homo sapiens) (UniProt P22607); assay: Inhibition of FGFR3 (unknown origin) at 1 uM relative to control
[3] = biological target: Fibroblast growth factor receptor 3 (Homo sapiens) (UniProt P22607); assay: Inhibition of FGFR3 (unknown origin) at 0.5 uM relative to control
[4] = biological target: Tyrosine-protein kinase ABL1 (Homo sapiens) (UniProt P00519); assay: Inhibition of phosphorylated form of Abl1 (unknown origin) at 75 uM relative to control
[5] = biological target: Tyrosine-protein kinase ABL1 (Homo sapiens) (UniProt P00519); assay: Inhibition of phosphorylated form of Abl1 (unknown origin) at 1 uM relative to control
[6] = biological target: Tyrosine-protein kinase ABL1 (Homo sapiens) (UniProt P00519); assay: Inhibition of phosphorylated form of Abl1 (unknown origin) at 0.5 uM relative to control
[7] = biological target: Tyrosine-protein kinase ABL1 (Homo sapiens) (UniProt P00519); assay: Inhibition of non-phosphorylated form of Abl1 (unknown origin) at 75 uM relative to control
[8] = biological target: Tyrosine-protein kinase ABL1 (Homo sapiens) (UniProt P00519); assay: Inhibition of non-phosphorylated form of Abl1 (unknown origin) at 1 uM relative to control
[9] = biological target: Tyrosine-protein kinase ABL1 (Homo sapiens) (UniProt P00519); assay: Inhibition of non-phosphorylated form of Abl1 (unknown origin) at 0.5 uM relative to control
[10] = biological target: Hepatocyte growth factor receptor (Homo sapiens) (UniProt P08581); assay: Inhibition of Met (unknown origin) at 75 uM relative to control
[11] = biological target: Hepatocyte growth factor receptor (Homo sapiens) (UniProt P08581); assay: Inhibition of Met (unknown origin) at 1 uM relative to control
[12] = biological target: Hepatocyte growth factor receptor (Homo sapiens) (UniProt P08581); assay: Inhibition of Met (unknown origin) at 0.5 uM relative to control
[13] = biological target: T1, Tyrosine-protein kinase Mer (Homo sapiens) (UniProt Q12866); assay: Inhibition of Mer (unknown origin) at 75 uM relative to control
T1 sequence (whole entry): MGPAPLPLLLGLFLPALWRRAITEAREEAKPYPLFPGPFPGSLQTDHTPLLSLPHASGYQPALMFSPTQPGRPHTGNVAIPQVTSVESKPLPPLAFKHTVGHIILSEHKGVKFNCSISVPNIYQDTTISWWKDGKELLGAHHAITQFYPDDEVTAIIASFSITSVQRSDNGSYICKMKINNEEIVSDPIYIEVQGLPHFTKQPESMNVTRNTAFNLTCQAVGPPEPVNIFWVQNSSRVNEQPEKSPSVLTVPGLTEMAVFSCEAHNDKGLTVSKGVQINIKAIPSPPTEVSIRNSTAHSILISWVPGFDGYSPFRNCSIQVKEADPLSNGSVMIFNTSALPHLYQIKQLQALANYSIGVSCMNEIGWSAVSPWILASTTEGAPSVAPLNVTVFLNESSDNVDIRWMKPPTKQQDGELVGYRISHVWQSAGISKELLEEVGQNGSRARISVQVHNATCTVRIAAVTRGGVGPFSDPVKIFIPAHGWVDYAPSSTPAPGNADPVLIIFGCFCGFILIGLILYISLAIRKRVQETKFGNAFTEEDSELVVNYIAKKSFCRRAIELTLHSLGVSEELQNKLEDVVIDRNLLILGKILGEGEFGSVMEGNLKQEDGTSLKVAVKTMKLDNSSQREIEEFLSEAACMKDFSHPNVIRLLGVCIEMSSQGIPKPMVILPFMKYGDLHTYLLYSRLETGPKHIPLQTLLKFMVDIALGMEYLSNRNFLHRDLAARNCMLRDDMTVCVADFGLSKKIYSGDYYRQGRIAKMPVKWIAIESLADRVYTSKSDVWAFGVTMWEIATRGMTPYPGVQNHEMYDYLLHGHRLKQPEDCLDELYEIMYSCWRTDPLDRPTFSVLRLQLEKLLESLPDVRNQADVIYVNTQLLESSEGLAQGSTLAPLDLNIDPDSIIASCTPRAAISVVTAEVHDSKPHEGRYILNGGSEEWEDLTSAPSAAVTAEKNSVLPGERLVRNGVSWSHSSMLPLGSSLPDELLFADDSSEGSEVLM

[14] = biological target: T1, Tyrosine-protein kinase Mer (Homo sapiens); assay: Inhibition of Mer (unknown origin) at 1 uM relative to control
[15] = biological target: T1, Tyrosine-protein kinase Mer (Homo sapiens); assay: Inhibition of Mer (unknown origin) at 0.5 uM relative to control
[16] = biological target: Tyrosine-protein kinase receptor UFO (Homo sapiens) (UniProt P30530); assay: Inhibition of Axl (unknown origin) at 75 uM relative to control
[17] = biological target: Tyrosine-protein kinase receptor UFO (Homo sapiens) (UniProt P30530); assay: Inhibition of Axl (unknown origin) at 1 uM relative to control
[18] = biological target: Tyrosine-protein kinase receptor UFO (Homo sapiens) (UniProt P30530); assay: Inhibition of Axl (unknown origin) at 0.5 uM relative to control
[19] = biological target: T2, Tyrosine-protein kinase receptor TYRO3 (Homo sapiens) (UniProt Q06418); assay: Inhibition of recombinant human Tyro3 kinase domain using poly (Glu, Ala, Tyr) as substrate at 75 uM after 1.5 hrs by ELISA relative to control
T2 sequence (whole entry): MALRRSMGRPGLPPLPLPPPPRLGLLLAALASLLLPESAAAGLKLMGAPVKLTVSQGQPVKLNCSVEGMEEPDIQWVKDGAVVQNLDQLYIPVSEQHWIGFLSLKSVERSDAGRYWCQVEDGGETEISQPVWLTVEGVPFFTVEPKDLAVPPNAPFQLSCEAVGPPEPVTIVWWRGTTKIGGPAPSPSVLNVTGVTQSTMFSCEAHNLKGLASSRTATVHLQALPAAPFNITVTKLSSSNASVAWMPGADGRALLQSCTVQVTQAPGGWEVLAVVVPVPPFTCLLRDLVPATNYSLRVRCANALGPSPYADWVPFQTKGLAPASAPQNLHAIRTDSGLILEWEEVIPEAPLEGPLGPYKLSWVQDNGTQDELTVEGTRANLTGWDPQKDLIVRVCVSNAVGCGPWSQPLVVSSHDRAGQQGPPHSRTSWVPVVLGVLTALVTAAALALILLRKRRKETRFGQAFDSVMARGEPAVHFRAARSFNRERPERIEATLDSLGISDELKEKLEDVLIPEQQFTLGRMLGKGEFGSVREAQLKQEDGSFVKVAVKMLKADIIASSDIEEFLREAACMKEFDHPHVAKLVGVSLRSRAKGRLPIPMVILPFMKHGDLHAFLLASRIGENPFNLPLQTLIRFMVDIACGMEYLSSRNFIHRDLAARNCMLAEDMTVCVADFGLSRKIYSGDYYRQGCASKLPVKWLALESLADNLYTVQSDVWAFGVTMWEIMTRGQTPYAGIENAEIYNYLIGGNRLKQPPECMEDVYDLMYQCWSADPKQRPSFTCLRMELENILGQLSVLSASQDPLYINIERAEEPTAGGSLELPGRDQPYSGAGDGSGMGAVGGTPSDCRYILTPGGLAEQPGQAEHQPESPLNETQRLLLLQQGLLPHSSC

[20] = biological target: T2, Tyrosine-protein kinase receptor TYRO3 (Homo sapiens); assay: Inhibition of recombinant human Tyro3 kinase domain using poly (Glu, Ala, Tyr) as substrate at 1 uM after 1.5 hrs by ELISA relative to control
[21] = biological target: T2, Tyrosine-protein kinase receptor TYRO3 (Homo sapiens); assay: Inhibition of recombinant human Tyro3 kinase domain using poly (Glu, Ala, Tyr) as substrate at 0.5 uM after 1.5 hrs by ELISA relative to control

Chain of Fibroblast growth factor receptor 3 (Homo sapiens) (P22607 23-806 limits assumed): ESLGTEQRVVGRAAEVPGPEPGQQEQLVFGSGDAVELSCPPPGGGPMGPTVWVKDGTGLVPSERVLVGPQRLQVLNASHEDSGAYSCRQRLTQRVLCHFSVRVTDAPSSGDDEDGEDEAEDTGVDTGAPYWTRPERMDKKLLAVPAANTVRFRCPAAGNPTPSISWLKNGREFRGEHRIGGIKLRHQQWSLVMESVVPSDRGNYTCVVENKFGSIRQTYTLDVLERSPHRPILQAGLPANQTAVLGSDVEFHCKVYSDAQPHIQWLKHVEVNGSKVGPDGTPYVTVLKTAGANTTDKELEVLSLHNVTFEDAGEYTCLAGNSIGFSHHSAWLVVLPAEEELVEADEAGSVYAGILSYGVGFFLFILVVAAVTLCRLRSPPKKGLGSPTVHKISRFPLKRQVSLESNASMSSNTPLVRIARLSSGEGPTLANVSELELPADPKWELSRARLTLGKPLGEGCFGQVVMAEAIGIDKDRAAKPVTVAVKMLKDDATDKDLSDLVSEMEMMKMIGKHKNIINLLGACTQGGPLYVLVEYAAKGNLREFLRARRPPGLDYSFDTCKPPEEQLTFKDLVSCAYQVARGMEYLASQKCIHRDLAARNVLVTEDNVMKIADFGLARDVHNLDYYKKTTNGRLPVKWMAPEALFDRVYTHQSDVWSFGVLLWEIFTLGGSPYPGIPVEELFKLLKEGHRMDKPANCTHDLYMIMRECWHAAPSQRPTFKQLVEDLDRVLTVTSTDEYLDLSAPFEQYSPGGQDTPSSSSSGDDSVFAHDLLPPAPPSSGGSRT
Chain of Tyrosine-protein kinase receptor UFO (Homo sapiens) (P30530 whole entry, the tested form may be a part): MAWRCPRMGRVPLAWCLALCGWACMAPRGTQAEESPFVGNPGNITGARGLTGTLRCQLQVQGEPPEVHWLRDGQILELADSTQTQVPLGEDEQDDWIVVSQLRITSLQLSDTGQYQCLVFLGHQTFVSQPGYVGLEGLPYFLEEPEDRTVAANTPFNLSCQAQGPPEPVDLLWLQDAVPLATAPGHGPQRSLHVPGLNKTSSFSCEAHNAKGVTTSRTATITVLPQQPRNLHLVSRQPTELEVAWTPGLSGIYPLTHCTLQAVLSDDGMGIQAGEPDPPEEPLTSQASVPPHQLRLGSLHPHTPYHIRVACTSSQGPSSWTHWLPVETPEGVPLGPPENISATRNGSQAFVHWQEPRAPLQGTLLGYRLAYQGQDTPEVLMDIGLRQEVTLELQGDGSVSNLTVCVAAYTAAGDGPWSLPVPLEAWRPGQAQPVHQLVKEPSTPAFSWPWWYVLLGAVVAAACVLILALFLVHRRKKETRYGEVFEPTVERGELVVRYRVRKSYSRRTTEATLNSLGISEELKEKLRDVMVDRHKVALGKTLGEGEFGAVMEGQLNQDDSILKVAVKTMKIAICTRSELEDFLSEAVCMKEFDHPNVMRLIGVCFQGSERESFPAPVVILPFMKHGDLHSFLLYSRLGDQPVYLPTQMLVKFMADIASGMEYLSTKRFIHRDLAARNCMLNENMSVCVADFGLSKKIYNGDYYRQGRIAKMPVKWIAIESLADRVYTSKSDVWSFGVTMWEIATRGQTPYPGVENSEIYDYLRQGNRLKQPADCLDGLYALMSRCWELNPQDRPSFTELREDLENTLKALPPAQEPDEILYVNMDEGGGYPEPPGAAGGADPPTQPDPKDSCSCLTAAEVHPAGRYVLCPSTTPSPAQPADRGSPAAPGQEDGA
Chain of Hepatocyte growth factor receptor (Homo sapiens) (P08581 whole entry): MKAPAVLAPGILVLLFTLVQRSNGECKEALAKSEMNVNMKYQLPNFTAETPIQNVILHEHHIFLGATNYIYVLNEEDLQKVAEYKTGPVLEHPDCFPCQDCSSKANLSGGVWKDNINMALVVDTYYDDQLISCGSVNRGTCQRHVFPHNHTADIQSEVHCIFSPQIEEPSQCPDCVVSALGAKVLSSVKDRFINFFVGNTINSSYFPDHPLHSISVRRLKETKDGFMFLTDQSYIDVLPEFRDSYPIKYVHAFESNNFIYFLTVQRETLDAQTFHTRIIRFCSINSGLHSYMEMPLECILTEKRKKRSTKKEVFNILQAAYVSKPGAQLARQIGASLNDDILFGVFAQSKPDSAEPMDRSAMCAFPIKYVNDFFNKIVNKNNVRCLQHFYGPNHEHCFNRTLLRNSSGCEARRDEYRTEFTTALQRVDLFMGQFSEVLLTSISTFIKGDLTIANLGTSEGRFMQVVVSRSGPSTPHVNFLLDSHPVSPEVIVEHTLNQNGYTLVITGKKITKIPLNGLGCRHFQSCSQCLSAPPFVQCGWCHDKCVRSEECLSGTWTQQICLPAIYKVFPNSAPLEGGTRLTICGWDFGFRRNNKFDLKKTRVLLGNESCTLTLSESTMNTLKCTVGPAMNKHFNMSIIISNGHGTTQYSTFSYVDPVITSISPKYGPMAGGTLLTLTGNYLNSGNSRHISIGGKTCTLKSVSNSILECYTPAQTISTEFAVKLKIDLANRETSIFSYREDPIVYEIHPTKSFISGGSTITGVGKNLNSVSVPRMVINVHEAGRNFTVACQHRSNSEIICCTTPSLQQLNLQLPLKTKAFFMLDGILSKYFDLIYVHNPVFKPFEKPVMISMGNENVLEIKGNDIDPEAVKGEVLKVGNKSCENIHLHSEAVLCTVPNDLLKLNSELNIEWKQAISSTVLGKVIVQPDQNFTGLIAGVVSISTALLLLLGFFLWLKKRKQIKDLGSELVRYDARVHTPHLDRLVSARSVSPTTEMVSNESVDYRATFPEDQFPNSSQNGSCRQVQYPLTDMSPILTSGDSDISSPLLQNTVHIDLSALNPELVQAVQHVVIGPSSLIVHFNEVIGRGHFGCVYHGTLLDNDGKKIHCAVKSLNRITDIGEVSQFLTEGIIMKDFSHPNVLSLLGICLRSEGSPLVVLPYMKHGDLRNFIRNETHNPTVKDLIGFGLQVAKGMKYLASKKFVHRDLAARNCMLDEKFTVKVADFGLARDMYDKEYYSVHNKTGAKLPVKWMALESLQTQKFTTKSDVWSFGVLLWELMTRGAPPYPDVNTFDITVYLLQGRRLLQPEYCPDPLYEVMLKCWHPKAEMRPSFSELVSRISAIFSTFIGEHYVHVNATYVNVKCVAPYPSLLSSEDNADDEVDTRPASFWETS
Chain of Tyrosine-protein kinase ABL1 (Homo sapiens) (P00519 whole entry): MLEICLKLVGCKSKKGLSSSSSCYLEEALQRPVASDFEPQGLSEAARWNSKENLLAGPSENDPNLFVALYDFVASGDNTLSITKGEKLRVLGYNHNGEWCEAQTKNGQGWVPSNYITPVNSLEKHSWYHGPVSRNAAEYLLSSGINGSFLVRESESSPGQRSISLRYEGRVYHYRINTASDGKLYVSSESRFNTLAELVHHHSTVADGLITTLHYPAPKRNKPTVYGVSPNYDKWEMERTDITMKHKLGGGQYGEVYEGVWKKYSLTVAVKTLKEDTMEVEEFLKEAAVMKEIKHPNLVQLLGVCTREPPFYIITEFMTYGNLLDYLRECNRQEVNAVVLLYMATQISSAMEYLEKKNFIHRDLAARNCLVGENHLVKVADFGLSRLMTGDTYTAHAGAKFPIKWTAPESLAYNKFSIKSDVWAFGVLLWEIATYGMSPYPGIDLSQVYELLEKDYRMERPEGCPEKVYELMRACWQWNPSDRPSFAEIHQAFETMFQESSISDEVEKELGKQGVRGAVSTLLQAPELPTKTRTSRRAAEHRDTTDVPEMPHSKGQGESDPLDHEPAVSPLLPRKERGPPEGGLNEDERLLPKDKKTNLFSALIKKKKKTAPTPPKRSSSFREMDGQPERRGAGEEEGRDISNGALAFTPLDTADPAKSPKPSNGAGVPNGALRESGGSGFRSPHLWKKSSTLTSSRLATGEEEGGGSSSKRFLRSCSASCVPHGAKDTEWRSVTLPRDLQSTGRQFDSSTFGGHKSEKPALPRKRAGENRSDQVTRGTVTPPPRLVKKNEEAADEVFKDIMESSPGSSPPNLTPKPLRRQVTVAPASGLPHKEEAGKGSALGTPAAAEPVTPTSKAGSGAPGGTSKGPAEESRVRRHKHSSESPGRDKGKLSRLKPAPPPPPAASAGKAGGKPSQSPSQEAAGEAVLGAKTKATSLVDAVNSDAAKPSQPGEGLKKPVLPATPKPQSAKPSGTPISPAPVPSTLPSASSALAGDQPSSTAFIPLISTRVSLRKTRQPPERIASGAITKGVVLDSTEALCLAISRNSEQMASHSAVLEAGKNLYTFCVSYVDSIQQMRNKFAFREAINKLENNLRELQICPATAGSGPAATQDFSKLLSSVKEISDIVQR

Compound | inhibition [1] [%] | inhibition [2] [%] | inhibition [3] [%] | inhibition [4] [%] | inhibition [5] [%] | inhibition [6] [%] | inhibition [7] [%] | inhibition [8] [%] | inhibition [9] [%] | inhibition [10] [%] | inhibition [11] [%] | inhibition [12] [%] | inhibition [13] [%] | inhibition [14] [%] | inhibition [15] [%] | inhibition [16] [%] | inhibition [17] [%] | inhibition [18] [%] | inhibition [19] [%] | inhibition [20] [%] | further results
Nc1cc(Oc2ccc(NC(=O)c3cccn(-c4ccc(F)cc4F)c3=O)cc2F)ncn1 | 9 | 0 | 0 | 21 | 4 | 8 | 85 | 37 | 25 | 99 | 97 | 91 | 87 | 71 | 50 | 100 | 93 | 74 | 100 | 63 | inhibition [21]: 27%
Nc1cc(Oc2ccc(NC(=O)c3cccn(-c4ccc(F)cc4)c3=O)cc2)ncn1 | 3 | 0 | 0 | 26 | 0 | 0 | 94 | 31 | 14 | 97 | 98 | 95 | 100 | 82 | 73 | 100 | 95 | 85 | 81 | 75 | inhibition [21]: 41%
